Measurements reported in article PMC8854719, “Phase 1A/1B dose-escalation and -expansion study to evaluate the safety, pharmacokinetics, food effects and antitumor activity of pamiparib in advanced solid tumours” (British Journal of Cancer, 2021).
Marks after values point to notes of the source that are not given here.

Assay: Safety and tolerability: adverse events, dose-limiting toxicities, MTD, RP2D (Phase 1A/1B)
Format: in vivo
Method: This was an open-label, Phase 1, dose-escalation/dose-expansion study, conducted across six study centres in Australia. The dose-escalation phase evaluated twice-daily (BID) and once-daily (QD) dosing, and the dose-expansion phase evaluated the BID RP2D from the dose-escalation phase and food effects (Fig. 1). The food-effects cohort comprised two sequences: fast followed by fed (sequence 1) and fed followed by fast (sequence 2). […] The decision to proceed to the next dose cohort was determined by the Safety Monitoring Committee and followed a modified 3 + 3 escalation scheme. […] When ≥2 DLTs occurred in the first 23 days of a dose level, the next lower dose level was declared the MTD. Safety was monitored and DLTs were assessed in all dose cohorts. […] The food-effects cohort investigated the effects of food on the PK of pamiparib in patients with advanced solid tumours.
The QD dosing regimen was added as an amendment to the protocol with the purpose of exploring the feasibility of a more convenient regimen.
Safety and tolerability were assessed throughout the study by monitoring adverse events (AEs), serious AEs, clinical laboratory measurements and physical examinations. Adverse events were categorised according to their severity (National Cancer Institute Common Terminology Criteria for Adverse Events v4.03) and relationship to the study treatment.

In the case of C[C@]12CCCN1CC1=NNC(=O)c3cc(F)cc4[nH]c2c1c34 [pamiparib], the “Ascites, AE of any grade” value (80 mg BID (n = 10)) is reported as 1 (10.0) n (%), the “Back pain, AE of any grade” value (80 mg BID (n = 10)) is reported as 0 (0.0) n (%) and the “Constipation, AE of any grade” value (80 mg BID (n = 10)) is reported as 4 (40.0) n (%). For the same compound, the “Cough, AE of any grade” value (80 mg BID (n = 10)) was 1 (10.0) n (%), the “Decreased appetite, AE of any grade” value (80 mg BID (n = 10)) was 2 (20.0) n (%) and the “Diarrhoea, AE of any grade” value (80 mg BID (n = 10)) was 1 (10.0) n (%). For the same compound, the Dose-limiting toxicity (80 mg BID (n = 10)) was 1 (10.0)^b n (%), the “Dyspnoea, AE of any grade” value (80 mg BID (n = 10)) was 0 (0.0) n (%) and the “Fatigue, AE of any grade” value (80 mg BID (n = 10)) was 4 (40.0) n (%). For the same compound, the “Headache, AE of any grade” value (80 mg BID (n = 10)) was 0 (0.0) n (%), the “Hypoalbuminemia, AE of any grade” value (80 mg BID (n = 10)) was 0 (0.0) n (%) and the “Hypomagnesemia, AE of any grade” value (80 mg BID (n = 10)) was 2 (20.0) n (%). The “Hypophosphatemia, AE of any grade” value (80 mg BID (n = 10)) was 0 (0.0) n (%), the “Increased AST, AE of any grade” value (80 mg BID (n = 10)) was 0 (0.0) n (%) and the “Muscle spasms, AE of any grade” value (80 mg BID (n = 10)) was 1 (10.0) n (%). For the same compound, the “Nausea, AE of any grade” value (80 mg BID (n = 10)) was 8 (80.0) n (%), the “Neutropenia, AE of any grade” value (80 mg BID (n = 10)) was 3 (30.0) n (%) and the “Non-cardiac chest pain, AE of any grade” value (80 mg BID (n = 10)) was 1 (10.0) n (%). The “Pain in extremity, AE of any grade” value (80 mg BID (n = 10)) was 0 (0.0) n (%), the “Peripheral sensory neuropathy, AE of any grade” value (80 mg BID (n = 10)) was 0 (0.0) n (%) and the “Pleural effusion, AE of any grade” value (80 mg BID (n = 10)) was 0 (0.0) n (%). The “Pyrexia, AE of any grade” value (80 mg BID (n = 10)) was 1 (10.0) n (%), the “Treatment-emergent AE” value (80 mg BID (n = 10)) was 10 (100.0) n (%) and the “Treatment-emergent AE: Grade 3 or higher” value (80 mg BID (n = 10)) was 4 (40.0) n (%). The “Treatment-emergent AE: Leading to death” value (80 mg BID (n = 10)) was 1 (10.0) n (%), the “Treatment-emergent AE: Leading to dose interruption” value (80 mg BID (n = 10)) was 5 (50.0) n (%) and the “Treatment-emergent AE: Leading to dose modification” value (80 mg BID (n = 10)) was 5 (50.0) n (%). For the same compound, the “Treatment-emergent AE: Leading to dose reduction” value (80 mg BID (n = 10)) was 1 (10.0) n (%), the “Treatment-emergent AE: Leading to treatment discontinuation” value (80 mg BID (n = 10)) was 0 (0.0) n (%) and the “Treatment-emergent AE: Serious” value (80 mg BID (n = 10)) was 3 (30.0) n (%). The “Treatment-related AE” value (80 mg BID (n = 10)) was 9 (90.0) n (%), the “Treatment-related AE: Grade 3 or higher” value (80 mg BID (n = 10)) was 3 (30.0) n (%) and the “Treatment-related AE: Leading to death” value (80 mg BID (n = 10)) was 0 (0.0) n (%). For the same compound, the “Treatment-related AE: Leading to dose interruption” value (80 mg BID (n = 10)) was 5 (50.0) n (%), the “Treatment-related AE: Leading to dose modification” value (80 mg BID (n = 10)) was 5 (50.0) n (%) and the “Treatment-related AE: Leading to dose reduction” value (80 mg BID (n = 10)) was 1 (10.0) n (%). For the same compound, the “Treatment-related AE: Leading to treatment discontinuation” value (80 mg BID (n = 10)) was 0 (0.0) n (%), the “Treatment-related AE: Serious” value (80 mg BID (n = 10)) was 1 (10.0) n (%) and the “Upper respiratory tract infection, AE of any grade” value (80 mg BID (n = 10)) was 5 (50.0) n (%). For the same compound, the “Urinary tract infection, AE of any grade” value (80 mg BID (n = 10)) was 2 (20.0) n (%), the “Vomiting, AE of any grade” value (80 mg BID (n = 10)) was 2 (20.0) n (%) and the “Dose-limiting toxicities observed (description)” value (80 mg BID, n = 1) was “Grade 2 nausea”. The “Abdominal pain, AE of any grade” value (120 mg BID (n = 5)) was 0 (0.0) n (%), the “Anaemia, AE of any grade” value (120 mg BID (n = 5)) was 3 (60.0) n (%) and the “Ascites, AE of any grade” value (120 mg BID (n = 5)) was 0 (0.0) n (%). For the same compound, the “Back pain, AE of any grade” value (120 mg BID (n = 5)) was 1 (20.0) n (%), the “Constipation, AE of any grade” value (120 mg BID (n = 5)) was 0 (0.0) n (%) and the “Cough, AE of any grade” value (120 mg BID (n = 5)) was 1 (20.0) n (%). The “Decreased appetite, AE of any grade” value (120 mg BID (n = 5)) was 2 (40.0) n (%), the “Diarrhoea, AE of any grade” value (120 mg BID (n = 5)) was 2 (40.0) n (%) and the Dose-limiting toxicity (120 mg BID (n = 5)) was 2 (40.0)^c n (%). For the same compound, the “Dyspnoea, AE of any grade” value (120 mg BID (n = 5)) was 0 (0.0) n (%), the “Fatigue, AE of any grade” value (120 mg BID (n = 5)) was 2 (40.0) n (%) and the “Headache, AE of any grade” value (120 mg BID (n = 5)) was 0 (0.0) n (%). The “Hypoalbuminemia, AE of any grade” value (120 mg BID (n = 5)) was 0 (0.0) n (%), the “Hypomagnesemia, AE of any grade” value (120 mg BID (n = 5)) was 0 (0.0) n (%) and the “Hypophosphatemia, AE of any grade” value (120 mg BID (n = 5)) was 1 (20.0) n (%). The “Increased AST, AE of any grade” value (120 mg BID (n = 5)) was 1 (20.0) n (%), the “Muscle spasms, AE of any grade” value (120 mg BID (n = 5)) was 0 (0.0) n (%) and the “Nausea, AE of any grade” value (120 mg BID (n = 5)) was 4 (80.0) n (%). The “Neutropenia, AE of any grade” value (120 mg BID (n = 5)) was 1 (20.0) n (%), the “Non-cardiac chest pain, AE of any grade” value (120 mg BID (n = 5)) was 1 (20.0) n (%) and the “Pain in extremity, AE of any grade” value (120 mg BID (n = 5)) was 1 (20.0) n (%). The “Peripheral sensory neuropathy, AE of any grade” value (120 mg BID (n = 5)) was 0 (0.0) n (%) and the “Pleural effusion, AE of any grade” value (120 mg BID (n = 5)) was 1 (20.0) n (%).
